# Data from ChEMBL document CHEMBL3390848, “Affinity selection and sequence-activity relationships of HIV-1 membrane fusion inhibitors directed at the drug-resistant variants” (Medchemcomm, 2010).
# Residues, ends and D or L forms follow the SMILES beside them.
# What was measured:
# [1] = test system: Envelope glycoprotein gp160 (Human immunodeficiency virus 1), Q72502 [V38A]; assay: Binding affinity to HIV1 His-tagged N-terminal heptad repeat of envelope glycoprotein gp41 assessed as recovery of N54 V38A mutant-drug complex after 2 hrs by LC-MS analysis; design: concentration or dose not given beside the values
# [2] = test system: Human immunodeficiency virus 1; assay: Antiviral activity against HIV1 NL4-3 harboring gp41 D36G mutant infected in human HeLa cells expressing CD4-LTR-beta-gal assessed as inhibition of viral replication after 48 hrs by MAGI assay; type: functional, organism-based
# [3] = test system: Human immunodeficiency virus 1; assay: Thermal stability of HIV1 envelope glycoprotein gp41 His-tagged N-terminal heptad repeat N54-drug complex assessed as thermal unfolding transition state by measuring molar ellipticity at 4 to 90 degC by circular dichroic spectra analysis
# [4] = test system: Envelope glycoprotein gp160 (Human immunodeficiency virus 1), Q72502 [V38A]; assay: Thermal stability of HIV1 envelope glycoprotein gp41 His-tagged N-terminal heptad repeat N54 V38A mutant-drug complex assessed as thermal unfolding transition state by measuring molar ellipticity at 4 to 90 degC by circular dichroic spectra analysis
# [5] = test system: Human immunodeficiency virus 1; assay: Binding affinity to HIV1 His-tagged N-terminal heptad repeat of envelope glycoprotein gp41 assessed as recovery of N54 N43D mutant-drug complex after 2 hrs by LC-MS analysis; design: concentration or dose not given beside the values
# [6] = test system: Human immunodeficiency virus 1; assay: Binding affinity to HIV1 His-tagged N-terminal heptad repeat of envelope glycoprotein gp41 assessed as recovery of N54-drug complex after 2 hrs by LC-MS analysis; design: concentration or dose not given beside the values
# [7] = test system: Human immunodeficiency virus 1; assay: Thermal stability of HIV1 envelope glycoprotein gp41 His-tagged N-terminal heptad repeat N54 N43D mutant-drug complex assessed as thermal unfolding transition state by measuring molar ellipticity at 4 to 90 degC by circular dichroic spectra analysis
structure (smiles),measurement,setting,value
CC[C@H](C)[C@H](NC(=O)[C@H](CC(C)C)NC(=O)[C@H](CCC(=O)O)NC(=O)[C@H](CCC(=O)O)NC(=O)[C@@H](NC(=O)[C@H](CC(C)C)NC(=O)[C@H](CO)NC(=O)[C@@H](NC(=O)[C@H](Cc1ccc(O)cc1)NC(C)=O)[C@@H](C)O)[C@@H](C)CC)C(=O)N[C@@H](CCCCN)C(=O)N[C@@H](CCCCN)C(=O)N[C@@H](Cc1c[nH]c2ccccc12)C(=O)N[C@@H](CCC(=O)O)C(=O)N[C@@H](CCC(=O)O)C(=O)N[C@@H](CCC(N)=O)C(=O)N[C@@H](CCC(N)=O)C(=O)N[C@@H](CCCCN)C(=O)N[C@@H](CCCCN)C(=O)N[C@@H](CC(N)=O)C(=O)N[C@@H](CCC(=O)O)C(=O)N[C@@H](CCC(=O)O)C(=O)N[C@@H](CCC(=O)O)C(=O)N[C@@H](CC(C)C)C(=O)N[C@@H](CCCCN)C(=O)N[C@@H](CCCCN)C(=O)N[C@@H](CC(C)C)C(=O)N[C@@H](CCC(=O)O)C(=O)N[C@@H](CCC(=O)O)C(=O)N[C@@H](Cc1c[nH]c2ccccc12)C(=O)N[C@@H](C)C(=O)N[C@@H](CCCCN)C(=O)N[C@@H](CCCCN)C(=O)N[C@@H](Cc1c[nH]c2ccccc12)C(=O)N[C@@H](CC(N)=O)C(=O)N[C@@H](Cc1c[nH]c2ccccc12)C(=O)N[C@@H](Cc1ccccc1)C(N)=O (Ac-YTSLIEELIKKWEEQQKKNEEELKKLEEWAKKWNWF-NH2),Activity,[1],7.7%
same,EC50,[2],20 nM
same,Tm,[3],62 °C
same,Tm,[4],53.2 °C
same,Activity,[5],7.6%
same,Activity,[6],5.2%
same,Tm,[7],61.4 °C
CC[C@H](C)[C@H](NC(=O)[C@H](CC(C)C)NC(=O)[C@H](CO)NC(=O)[C@@H](NC(=O)[C@H](Cc1ccc(O)cc1)NC(C)=O)[C@@H](C)O)C(=O)N[C@@H](CCC(=O)O)C(=O)N[C@@H](CCC(=O)O)C(=O)N[C@@H](CC(C)C)C(=O)N[C@H](C(=O)N[C@@H](CCCCN)C(=O)N[C@@H](CCCCN)C(=O)N1CCC[C@H]1C(=O)N[C@@H](CCC(=O)O)C(=O)N[C@@H](CCC(=O)O)C(=O)N[C@@H](CCC(N)=O)C(=O)N[C@@H](CCC(N)=O)C(=O)N[C@@H](CCCCN)C(=O)N[C@@H](CCCCN)C(=O)N[C@@H](CC(N)=O)C(=O)N[C@@H](CCC(=O)O)C(=O)N[C@@H](CCC(=O)O)C(=O)N[C@@H](CCC(=O)O)C(=O)N[C@@H](CC(C)C)C(=O)N[C@@H](CCCCN)C(=O)N[C@@H](CCCCN)C(=O)N[C@@H](CC(C)C)C(=O)N[C@@H](CCC(=O)O)C(=O)N[C@@H](CCC(=O)O)C(=O)N[C@@H](Cc1c[nH]c2ccccc12)C(=O)N[C@@H](C)C(=O)N[C@@H](CCCCN)C(=O)N[C@@H](CCCCN)C(=O)N[C@@H](Cc1c[nH]c2ccccc12)C(=O)N[C@@H](CC(N)=O)C(=O)N[C@@H](Cc1c[nH]c2ccccc12)C(=O)N[C@@H](Cc1ccccc1)C(N)=O)[C@@H](C)CC (Ac-YTSLIEELIKKPEEQQKKNEEELKKLEEWAKKWNWF-NH2),Activity,[1],0%
same,EC50,[2],44 nM
same,Tm,[3],55.5 °C
same,Tm,[4],49.7 °C
same,Activity,[5],0.3%
same,Activity,[6],0.2%
same,Tm,[7],55 °C
